For the first test, the target named is T1, Metabotropic glutamate receptor 1 (Homo sapiens, UniProt Q13255). The test can be described thus: Compound was tested for inhibition of glutamate-evoked (10 uM) [Ca2+] mobilization in Metabotropic glutamate receptor 1 expressed-CHO cells; NE: No effect at 1-100 uM. The class given is cell-based.
T1 sequence (Q13255 whole entry): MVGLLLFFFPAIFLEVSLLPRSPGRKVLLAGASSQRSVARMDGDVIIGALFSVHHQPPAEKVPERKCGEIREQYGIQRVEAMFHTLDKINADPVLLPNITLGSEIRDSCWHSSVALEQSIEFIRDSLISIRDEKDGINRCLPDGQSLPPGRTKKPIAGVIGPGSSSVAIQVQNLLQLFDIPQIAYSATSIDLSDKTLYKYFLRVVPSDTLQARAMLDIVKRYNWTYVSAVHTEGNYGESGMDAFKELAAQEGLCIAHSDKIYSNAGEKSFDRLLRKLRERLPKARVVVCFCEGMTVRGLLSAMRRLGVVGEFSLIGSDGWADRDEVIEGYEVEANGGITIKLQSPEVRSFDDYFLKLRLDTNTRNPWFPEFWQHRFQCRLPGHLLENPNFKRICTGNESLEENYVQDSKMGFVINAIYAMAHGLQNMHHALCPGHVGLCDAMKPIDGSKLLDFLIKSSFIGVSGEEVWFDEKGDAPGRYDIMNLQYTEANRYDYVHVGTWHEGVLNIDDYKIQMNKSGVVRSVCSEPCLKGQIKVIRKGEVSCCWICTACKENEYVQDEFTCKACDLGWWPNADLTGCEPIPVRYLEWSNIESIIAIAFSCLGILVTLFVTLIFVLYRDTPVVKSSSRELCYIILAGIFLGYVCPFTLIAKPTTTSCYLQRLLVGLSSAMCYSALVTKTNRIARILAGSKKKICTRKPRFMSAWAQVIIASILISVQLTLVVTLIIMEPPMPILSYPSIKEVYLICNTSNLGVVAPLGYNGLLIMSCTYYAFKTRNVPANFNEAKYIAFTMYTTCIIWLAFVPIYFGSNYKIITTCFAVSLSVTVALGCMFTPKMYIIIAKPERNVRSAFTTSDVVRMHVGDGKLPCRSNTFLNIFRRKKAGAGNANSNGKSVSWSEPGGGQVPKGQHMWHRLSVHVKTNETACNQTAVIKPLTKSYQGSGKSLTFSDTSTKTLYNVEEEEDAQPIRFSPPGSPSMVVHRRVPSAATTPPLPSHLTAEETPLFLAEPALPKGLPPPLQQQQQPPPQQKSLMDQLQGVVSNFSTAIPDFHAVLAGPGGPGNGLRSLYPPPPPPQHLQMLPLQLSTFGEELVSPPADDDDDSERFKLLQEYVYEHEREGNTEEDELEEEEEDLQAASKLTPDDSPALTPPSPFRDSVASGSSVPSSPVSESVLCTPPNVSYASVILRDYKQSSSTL
`O=C(Nc1ccccc1)c1cc(=O)c2ccccc2o1`: the IC50 entry was “No effect”. The same measure, in the same setting: next, `CN(C(=O)c1cc(=O)c2ccccc2o1)c1ccccc1`: “No effect”. In the case of `CN(C(=O)C12CC1C(=O)c1ccccc1O2)c1ccccc1` (stereo unspecified), the IC50 entry is recorded as “No effect”. The same measure, in the same setting: for `CCOC(=O)C12CC1C(=O)c1ccccc1O2` (stereo unspecified) the value was “No effect”; for `O=C1c2ccccc2OC2(C(=O)Nc3ccccc3)CC12` (stereo unspecified), “No effect”.

In the case of `CCOC(=O)c1cc(=O)c2ccccc2o1`, the IC50 entry is given as “No effect”.

A further test has as its target T1, Metabotropic glutamate receptor 1. Put plainly: Compound was tested for inhibition of glutamate-evoked (10 uM) [Ca2+] mobilization in mGluR1-alpha expressed-CHO cells. The class given is cell-based.
The compound `CN(C(=O)C12CC1/C(=N\O)c1ccccc1O2)c1ccccc1` (stereo unspecified) displayed an IC50 of 10 µM. Still for that read-out and setting: for `O=C(Nc1ccccc1)C12CC1/C(=N\O)c1ccccc1O2` (stereo unspecified) the value was 3 µM; for `CCOC(=O)C12CC1/C(=N\O)c1ccccc1O2` (stereo unspecified), 23 µM. Same read-out and setting: for `NC(C(=O)O)c1ccc(C(=O)O)c(O)c1` (stereo unspecified) the value was 200 µM; for `CC(N)(C(=O)O)c1ccc(C(=O)O)cc1` (stereo unspecified), 700 µM.

One may read the IC50 as the concentration that inhibits the measured activity by half. Lower therefore signals higher potency.
